Measurements: patent US5079241A, “Cephalosporin derivatives and pharmaceutical compositions in which they are present” (Sanofi, priority 1987, dated 1992)
In brackets after ≈: the same amount, converted by molar mass.

Columns and labels:
[1] = system: Escherichia coli C1/Col E1::Tn3; test: bacteriostatic action in vitro by the dilution method (MIC); assay type: cell-based; settings: read-out: minimum inhibitory concentrations (MIC)
Procedure: (§1) The bacteriostatic action was determined in vitro by the dilution method. The study was carried out on both Gram-positive strains and Gram-negative strains.
(§2) The results for various products according to the invention, expressed as minimum inhibitory concentrations (MIC - μg/ml), are collated in Table 3.

[2] = system: Escherichia coli SOL RL 90; test: as above; assay type: cell-based; settings: SOLRL90, read-out: minimum inhibitory concentrations (MIC)
Procedure: as §1, §2

[3] = system: Klebsiella pneumoniae R30; test: as above; assay type: cell-based; settings: read-out: minimum inhibitory concentrations (MIC)
Procedure: as §1, §2

[4] = system: Proteus vulgaris GN 76/C-1; test: as above; assay type: cell-based; settings: GN76, read-out: minimum inhibitory concentrations (MIC)
Procedure: as §1, §2

Providencia 155 = test: as above; assay type: cell-based; settings: read-out: minimum inhibitory concentrations (MIC)
Procedure: as §1, §2

[5] = system: Pseudomonas aeruginosa NCTC 8203; test: as above; assay type: cell-based; settings: NCTC8203, read-out: minimum inhibitory concentrations (MIC)
Procedure: as §1, §2

Staph. aureus Smith = test: as above; assay type: cell-based; settings: Staphylococcus aureus, read-out: minimum inhibitory concentrations (MIC)
Procedure: as §1, §2

[6] = pharmacokinetic behavior in baboons, 20 mg/kg (Tables 4 and 6); assay type: in vivo; settings: baboon
Procedure: (§3) Furthermore, the pharmacokinetic behavior of the products according to the invention was studied in baboons after administration at a dose of 20 mg/kg by intramuscular injection or intravenous injection.
(§4) Blood samples taken at various times after administration are used to determine the plasma concentration of the product studied by microbiological assay.
(§5) It is thus possible to construct the curve showing the plasma concentration as a function of time, and to determine different pharmacokinetic parameters of the compound studied:
(§6) the elimination half-life (t1/2 β) is calculated by the formula [formula] in which β represents the elimination gradient or slope;
(§7) the area under the curve (AUC) is determined by the trapezium method.
(§8) The plasma concentrations obtained with various products of the invention are collated in Tables 4 and 5. They are expressed in μg/ml.

[7] = protein binding by comparing two standard scales in baboon plasma and phosphate buffer; assay type: in vitro ADME; settings: baboon plasma vs phosphate buffer (pH 7, 0.03M)
Description: Furthermore, the protein binding is obtained by comparing two standard scales, one being prepared in baboon plasma and the other in phosphate buffer (pH 7, 0.03M).

[8] = pharmacokinetic behavior in baboons, 20 mg/kg (Tables 5 and 7); assay type: in vivo
Procedure: as §3, §4, §5, §6, §7, §8

For `CO/N=C(\C(=O)NC1C(=O)N2C(C(=O)O)=C(COC(=O)c3ccc(NC(=O)CCN)c(O)c3)CSC12)c1csc(N)n1` (centres unmarked) [SR 43853], the MIC [1] was 0.06 µg/mL (≈ 0.0968 µM), the MIC [2] was 0.25 µg/mL (≈ 0.403 µM) and the MIC [3] was 4 µg/mL (≈ 6.46 µM). The MIC [4] was 16 µg/mL (≈ 25.8 µM), the MIC (Providencia 155) was 1 µg/mL (≈ 1.61 µM) and the MIC [5] was 2 µg/mL (≈ 3.23 µM). For the same compound, the MIC (Staph. aureus Smith) was 0.25 µg/mL (≈ 0.403 µM).
Compound `CC(C)(O/N=C(\C(=O)NC1C(=O)N2C(C(=O)O)=C(COC(=O)c3ccc(NC(=O)CCN)c(O)c3)CSC12)c1csc(N)n1)C(=O)O` (centres unmarked) [SR 43904] has an MIC [1] of 0.25 µg/mL (≈ 0.361 µM), an MIC [2] of 2 µg/mL (≈ 2.89 µM) and an MIC [3] of 1 µg/mL (≈ 1.45 µM). The MIC [4] was 0.25 µg/mL (≈ 0.361 µM), the MIC (Providencia 155) was 1 µg/mL (≈ 1.45 µM) and the MIC [5] was 1 µg/mL (≈ 1.45 µM). The MIC (Staph. aureus Smith) was 4 µg/mL (≈ 5.78 µM), the Tmax ([6]; plasma, 20 mg/kg (Table 6)) was 1.5 h and the Cmax ([6]; plasma, 20 mg/kg (Table 6), read-out: Max plasma concentration) was 94.1 µg/mL. For the same compound, the half-life ([6]; plasma, 20 mg/kg (Table 6), read-out: t1/2 β) was 4.42 h, the AUC(0-t) at 6 h ([6]; plasma, 20 mg/kg (Table 6), trapezium method) was 348 µg·h/mL and the concentration at 6 h ([6]; plasma, 20 mg/kg, 20 mg/kg (Table 6), read-out: Plasma concentration at 6 h) was 34.3 µg/mL. For the same compound, the concentration at 10 min ([6]; plasma, 20 mg/kg, 10 minutes) was 12.6 µg/mL, the concentration at 0.5 h ([6]; plasma, 20 mg/kg, 30 minutes) was 52.4 µg/mL and the concentration at 0.75 h ([6]; plasma, 20 mg/kg, 45 minutes) was 73 µg/mL. For the same compound, the concentration at 1 h ([6]; plasma, 20 mg/kg, 60 minutes) was 76.1 µg/mL, the concentration at 1.5 h ([6]; plasma, 20 mg/kg, 90 minutes) was 94.1 µg/mL and the concentration at 2 h ([6]; plasma, 20 mg/kg, 120 minutes) was 76.1 µg/mL. For the same compound, the concentration at 3 h ([6]; plasma, 20 mg/kg, 180 minutes) was 59.7 µg/mL, the concentration at 4 h ([6]; plasma, 20 mg/kg, 240 minutes) was 57.3 µg/mL and the concentration at 5 h ([6]; plasma, 20 mg/kg, 300 minutes) was 53.4 µg/mL. For the same compound, the concentration at 5.5 h ([6]; plasma, 20 mg/kg, 330 minutes) was 39.9 µg/mL, the concentration at 6 h ([6]; plasma, 20 mg/kg, 360 minutes, read-out: plasma concentration) was 34.3 µg/mL and the dose excreted at 6 h ([6]; urine, 20 mg/kg, 6 h (Table 6), read-out: Excretion in the urine) was 17%. It also gave a fraction unbound [7] of 0.29.
`CO/N=C(\C(=O)NC1C(=O)N2C(C(=O)O)=C(COC(=O)c3ccc(NC(=O)C(N)CCN)c(O)c3)CSC12)c1csc(N)n1` (centres unmarked) [SR 44218] showed an MIC [1] of 0.25 µg/mL (≈ 0.385 µM), an MIC [2] of 0.5 µg/mL (≈ 0.771 µM) and an MIC [3] of 8 µg/mL (≈ 12.3 µM). It also gave an MIC [4] of 16 µg/mL (≈ 24.7 µM), an MIC (Providencia 155) of 2 µg/mL (≈ 3.08 µM) and an MIC [5] of 4 µg/mL (≈ 6.17 µM). For the same compound, the MIC (Staph. aureus Smith) was 0.5 µg/mL (≈ 0.771 µM).
Work on `CO/N=C(\C(=O)NC1C(=O)N2C(C(=O)O)=C(COC(=O)c3ccc(NC(=O)[C@@H](N)CCCN)c(O)c3)CSC12)c1csc(N)n1` (some centres unmarked) [SR 44219] yielded an MIC [1] of 0.12 µg/mL (≈ 0.181 µM), an MIC [2] of 0.12 µg/mL (≈ 0.181 µM) and an MIC [3] of 4 µg/mL (≈ 6.04 µM). The MIC [4] was 16 µg/mL (≈ 24.1 µM), the MIC (Providencia 155) was 1 µg/mL (≈ 1.51 µM) and the MIC [5] was 1 µg/mL (≈ 1.51 µM). It also gave an MIC (Staph. aureus Smith) of 0.5 µg/mL (≈ 0.754 µM).
For `CO/N=C(\C(=O)NC1C(=O)N2C(C(=O)O)=C(COC(=O)c3ccc(NS(=O)(=O)CCN)c(O)c3)CSC12)c1csc(N)n1` (stereo not drawn) [SR 44337, 7-[2-(2-Aminothiazol-4-yl)-2-methoxyiminoacetamido]-3-[[4-(2-aminoethylsulfonamido)-3-hydroxybenzoyl]oxymethyl]-3-cephem-4-carboxylic acid bis-trifluoroacetate, syn isomer], the MIC [1] was 0.06 µg/mL (≈ 0.0915 µM), the MIC [2] was 0.5 µg/mL (≈ 0.763 µM) and the MIC [3] was 4 µg/mL (≈ 6.1 µM). The MIC [4] was 1 µg/mL (≈ 1.53 µM), the MIC (Providencia 155) was 1 µg/mL (≈ 1.53 µM) and the MIC [5] was 2 µg/mL (≈ 3.05 µM). For the same compound, the MIC (Staph. aureus Smith) was 0.25 µg/mL (≈ 0.381 µM), the “increase in area under the curve relative to reference product C” value [8] was 2.7 fold and the “Plasma concentration at 24 h” value ([8]; 20 mg/kg (Table 7)) was 39.0 µg/mL. The “Plasma concentration at 48 h” value ([8]; 20 mg/kg (Table 7)) was 14.4 µg/mL, the “plasma concentration at 24 hours, times higher than reference product C” value ([8]; 24 hours) was 5 times and the “plasma concentration at 48 hours, times higher than reference product C” value ([8]; 48 hours) was 24 times. It also gave a Cmax ([8]; baboon, plasma, 20 mg/kg (Table 7), read-out: Maximum plasma concentration) of 266 µg/mL, a half-life ([8]; baboon, plasma, 20 mg/kg (Table 7), read-out: t1/2 β (converted)) of 13.9 h and an AUC(0-inf) ([8]; baboon, plasma, 20 mg/kg (Table 7), trapezium method, read-out: AUC 0-.infin.) of 3320 µg·h/mL. For the same compound, the concentration at 0.08 h ([8]; baboon, plasma, 20 mg/kg, 0.08 hours) was 266 µg/mL, the concentration at 0.16 h ([8]; baboon, plasma, 20 mg/kg, 0.16 hours) was 251 µg/mL and the concentration at 0.25 h ([8]; baboon, plasma, 20 mg/kg, 0.25 hours) was 238 µg/mL. For the same compound, the concentration at 0.33 h ([8]; baboon, plasma, 20 mg/kg, 0.33 hours) was 206 µg/mL, the concentration at 0.5 h ([8]; baboon, plasma, 20 mg/kg, 0.5 hours) was 194 µg/mL and the concentration at 0.75 h ([8]; baboon, plasma, 20 mg/kg, 0.75 hours) was 190 µg/mL. It also gave a concentration at 1 h ([8]; baboon, plasma, 20 mg/kg, 1 hours) of 182 µg/mL, a concentration at 1.5 h ([8]; baboon, plasma, 20 mg/kg, 1.5 hours) of 164 µg/mL and a concentration at 2 h ([8]; baboon, plasma, 20 mg/kg, 2 hours) of 153 µg/mL. It also gave a concentration at 3 h ([8]; baboon, plasma, 20 mg/kg, 3 hours) of 152 µg/mL, a concentration at 4 h ([8]; baboon, plasma, 20 mg/kg, 4 hours) of 147 µg/mL and a concentration at 5 h ([8]; baboon, plasma, 20 mg/kg, 5 hours) of 141 µg/mL. The concentration at 6 h ([8]; baboon, plasma, 20 mg/kg, 6 hours) was 120 µg/mL, the concentration at 24 h ([8]; baboon, plasma, 20 mg/kg, 24 hours) was 39 µg/mL and the concentration at 48 h ([8]; baboon, plasma, 20 mg/kg, 48 hours) was 14.4 µg/mL. For the same compound, the dose excreted at 6 h ([8]; baboon, urine, 20 mg/kg (Table 7), read-out: Excretion in urine at 6 h) was 14%.
